Common to all, as to test: Eurofins kinase profiling
Assay type in all cases: biochemical

One assay has as its target T1, Flt3(h) (Homo sapiens, UniProt P36888).
T1 construct: purchased Eurofins KinaseProfiler
T1 sequence (P36888 27-993): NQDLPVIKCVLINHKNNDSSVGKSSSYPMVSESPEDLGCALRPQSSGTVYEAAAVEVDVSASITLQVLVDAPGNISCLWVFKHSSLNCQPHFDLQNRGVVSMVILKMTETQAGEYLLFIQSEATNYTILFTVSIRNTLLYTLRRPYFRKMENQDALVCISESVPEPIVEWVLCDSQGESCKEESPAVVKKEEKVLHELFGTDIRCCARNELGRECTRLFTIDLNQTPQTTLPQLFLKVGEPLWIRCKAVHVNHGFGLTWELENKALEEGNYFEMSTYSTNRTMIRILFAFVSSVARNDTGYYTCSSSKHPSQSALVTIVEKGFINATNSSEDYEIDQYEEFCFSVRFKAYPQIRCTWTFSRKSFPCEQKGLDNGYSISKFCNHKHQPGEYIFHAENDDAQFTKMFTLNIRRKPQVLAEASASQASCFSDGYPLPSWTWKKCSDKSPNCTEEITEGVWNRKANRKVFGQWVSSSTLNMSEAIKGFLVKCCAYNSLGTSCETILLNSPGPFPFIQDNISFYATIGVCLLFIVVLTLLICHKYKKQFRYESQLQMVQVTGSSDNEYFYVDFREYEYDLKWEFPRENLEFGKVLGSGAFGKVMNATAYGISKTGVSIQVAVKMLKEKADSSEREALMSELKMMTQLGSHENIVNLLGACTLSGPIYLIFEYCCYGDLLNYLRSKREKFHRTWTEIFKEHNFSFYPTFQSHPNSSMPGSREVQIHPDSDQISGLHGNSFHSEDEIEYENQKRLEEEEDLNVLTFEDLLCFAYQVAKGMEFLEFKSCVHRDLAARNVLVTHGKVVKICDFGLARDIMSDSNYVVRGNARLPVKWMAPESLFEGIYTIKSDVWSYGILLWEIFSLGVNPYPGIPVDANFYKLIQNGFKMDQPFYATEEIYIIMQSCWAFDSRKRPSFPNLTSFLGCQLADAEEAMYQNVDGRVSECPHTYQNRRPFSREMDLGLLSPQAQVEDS
The conditions noted are these: read-out: residual kinase activity Flt3(h). The protocol: (§1) The kinase profiling analysis was performed at Eurofins (Poitiers, France). A total of 110 kinase assays were carried out according to Eurofins’ standard protocols. For protein kinase assays, the kinase activity was measured using Eurofins’ KinaseProfiler radiometric assay. In this assay, a panel of kinases was incubated with the test compound SJP1602 at a concentration of 1 µM, and the kinase activity was determined using radiolabeled phosphate as a substrate. Lipid and atypical kinase assays were conducted using Eurofins’ homogeneous time-resolved fluorescence assay. The same panel of kinases was incubated with SJP1602 at a concentration of 1 µM, and the activity of lipid and atypical kinases was measured using this assay.

The next assay concerns the target T2, CDK2/cyclinA(h) (Homo sapiens, UniProt P24941).
T2 construct: purchased Eurofins KinaseProfiler
The note with it: read-out: residual kinase activity CDK2/cyclinA(h). The protocol:
as §1

Another assay concerns the target T3, CDK5/p35(h) (Homo sapiens, UniProt Q00535).
T3 construct: purchased Eurofins KinaseProfiler
The note with it: read-out: residual kinase activity CDK5/p35(h). How it is done: as §1

The target in a further assay is T4, IR(h) (Homo sapiens, UniProt P06213).
T4 construct: purchased Eurofins KinaseProfiler
T4 sequence (P06213 28-1382): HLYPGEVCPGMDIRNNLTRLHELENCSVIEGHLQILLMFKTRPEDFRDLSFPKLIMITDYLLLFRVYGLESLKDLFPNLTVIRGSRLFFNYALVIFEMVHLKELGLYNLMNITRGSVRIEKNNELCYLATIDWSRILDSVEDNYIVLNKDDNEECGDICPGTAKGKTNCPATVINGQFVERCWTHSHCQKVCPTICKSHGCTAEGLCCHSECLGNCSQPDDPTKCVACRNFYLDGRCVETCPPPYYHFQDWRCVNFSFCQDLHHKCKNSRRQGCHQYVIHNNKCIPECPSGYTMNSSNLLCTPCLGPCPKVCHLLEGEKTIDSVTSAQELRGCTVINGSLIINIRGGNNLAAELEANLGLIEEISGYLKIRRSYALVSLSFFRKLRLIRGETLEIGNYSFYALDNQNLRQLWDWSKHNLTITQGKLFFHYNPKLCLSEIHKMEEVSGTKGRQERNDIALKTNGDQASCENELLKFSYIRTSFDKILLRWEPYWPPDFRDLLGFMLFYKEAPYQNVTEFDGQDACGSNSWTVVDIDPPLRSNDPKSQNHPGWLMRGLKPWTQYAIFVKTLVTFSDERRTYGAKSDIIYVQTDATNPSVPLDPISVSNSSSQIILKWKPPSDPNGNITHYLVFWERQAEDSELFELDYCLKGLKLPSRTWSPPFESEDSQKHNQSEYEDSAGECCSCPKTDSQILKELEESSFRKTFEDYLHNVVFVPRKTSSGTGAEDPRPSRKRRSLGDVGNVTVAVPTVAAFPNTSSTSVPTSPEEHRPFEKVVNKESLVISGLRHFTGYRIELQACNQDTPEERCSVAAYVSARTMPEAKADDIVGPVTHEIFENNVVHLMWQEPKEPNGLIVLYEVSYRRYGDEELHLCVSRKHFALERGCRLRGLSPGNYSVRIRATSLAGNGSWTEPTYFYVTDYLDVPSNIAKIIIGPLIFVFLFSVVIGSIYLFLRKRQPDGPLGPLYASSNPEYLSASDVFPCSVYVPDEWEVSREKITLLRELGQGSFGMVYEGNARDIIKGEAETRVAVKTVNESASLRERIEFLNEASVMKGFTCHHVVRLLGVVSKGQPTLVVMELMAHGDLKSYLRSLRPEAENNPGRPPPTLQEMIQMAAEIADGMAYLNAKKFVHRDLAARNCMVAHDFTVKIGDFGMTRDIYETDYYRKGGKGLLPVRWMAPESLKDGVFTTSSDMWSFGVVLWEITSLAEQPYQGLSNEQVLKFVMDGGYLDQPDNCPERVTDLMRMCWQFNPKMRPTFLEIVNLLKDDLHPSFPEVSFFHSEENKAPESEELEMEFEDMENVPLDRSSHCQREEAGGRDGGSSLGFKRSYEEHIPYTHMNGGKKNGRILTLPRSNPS
The note with it: read-out: residual kinase activity IR(h). How it is done: as §1

In the next assay the target is T5, PKD2(h) (Homo sapiens, UniProt Q9BZL6).
T5 construct: purchased Eurofins KinaseProfiler
T5 sequence (Q9BZL6 1-878): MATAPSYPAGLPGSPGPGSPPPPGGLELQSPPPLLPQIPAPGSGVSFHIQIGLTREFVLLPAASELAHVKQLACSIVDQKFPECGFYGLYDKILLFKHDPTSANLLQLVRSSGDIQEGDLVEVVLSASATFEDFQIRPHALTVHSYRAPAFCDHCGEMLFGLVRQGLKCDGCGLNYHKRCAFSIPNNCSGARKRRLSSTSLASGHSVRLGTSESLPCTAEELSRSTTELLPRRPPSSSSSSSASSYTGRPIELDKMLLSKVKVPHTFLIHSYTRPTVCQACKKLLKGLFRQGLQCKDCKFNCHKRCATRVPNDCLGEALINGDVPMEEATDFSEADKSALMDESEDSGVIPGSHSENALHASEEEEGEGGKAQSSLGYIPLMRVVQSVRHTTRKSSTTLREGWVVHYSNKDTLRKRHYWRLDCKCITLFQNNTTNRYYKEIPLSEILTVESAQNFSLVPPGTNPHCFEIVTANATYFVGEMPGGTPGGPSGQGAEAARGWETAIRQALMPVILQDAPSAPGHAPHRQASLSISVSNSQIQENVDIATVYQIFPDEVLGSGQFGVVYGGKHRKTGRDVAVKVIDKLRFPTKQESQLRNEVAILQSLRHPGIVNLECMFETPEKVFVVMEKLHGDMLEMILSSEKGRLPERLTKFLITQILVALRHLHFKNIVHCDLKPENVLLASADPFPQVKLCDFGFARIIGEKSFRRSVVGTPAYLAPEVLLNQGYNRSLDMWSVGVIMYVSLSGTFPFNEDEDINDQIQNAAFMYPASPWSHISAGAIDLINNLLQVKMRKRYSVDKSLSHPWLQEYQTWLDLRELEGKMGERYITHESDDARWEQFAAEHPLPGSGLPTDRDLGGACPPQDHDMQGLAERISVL
The note with it: read-out: residual kinase activity PKD2(h). How it is done:
as §1

The target of another assay is T6, Aurora-A(h) (Homo sapiens, UniProt O14965).
T6 construct: purchased Eurofins KinaseProfiler
T6 sequence (O14965 1-403): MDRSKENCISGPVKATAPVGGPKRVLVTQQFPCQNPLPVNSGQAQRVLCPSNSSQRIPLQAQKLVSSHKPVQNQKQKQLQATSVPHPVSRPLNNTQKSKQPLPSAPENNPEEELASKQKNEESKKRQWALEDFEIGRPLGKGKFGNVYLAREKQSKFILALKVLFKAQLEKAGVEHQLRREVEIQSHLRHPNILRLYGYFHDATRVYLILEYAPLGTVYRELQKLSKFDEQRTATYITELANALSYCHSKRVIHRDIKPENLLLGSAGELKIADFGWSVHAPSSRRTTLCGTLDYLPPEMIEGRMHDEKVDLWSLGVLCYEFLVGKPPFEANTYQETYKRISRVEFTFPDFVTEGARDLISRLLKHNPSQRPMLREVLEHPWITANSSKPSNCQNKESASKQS
The conditions noted are these: read-out: residual kinase activity Aurora-A(h). How it is done:
as §1

The next assay concerns the target T7, FGFR4(h) (Homo sapiens, UniProt P22455).
T7 construct: purchased Eurofins KinaseProfiler
The note with it: read-out: residual kinase activity FGFR4(h). How it is done: as §1

The values that follow come from paper PMC10528299, “Targeting FAK/PYK2 with SJP1602 for Anti-Tumor Activity in Triple-Negative Breast Cancer” (Current Issues in Molecular Biology, 2023).

SMILES strings stand for the structures.

T7 sequence (P22455 22-802): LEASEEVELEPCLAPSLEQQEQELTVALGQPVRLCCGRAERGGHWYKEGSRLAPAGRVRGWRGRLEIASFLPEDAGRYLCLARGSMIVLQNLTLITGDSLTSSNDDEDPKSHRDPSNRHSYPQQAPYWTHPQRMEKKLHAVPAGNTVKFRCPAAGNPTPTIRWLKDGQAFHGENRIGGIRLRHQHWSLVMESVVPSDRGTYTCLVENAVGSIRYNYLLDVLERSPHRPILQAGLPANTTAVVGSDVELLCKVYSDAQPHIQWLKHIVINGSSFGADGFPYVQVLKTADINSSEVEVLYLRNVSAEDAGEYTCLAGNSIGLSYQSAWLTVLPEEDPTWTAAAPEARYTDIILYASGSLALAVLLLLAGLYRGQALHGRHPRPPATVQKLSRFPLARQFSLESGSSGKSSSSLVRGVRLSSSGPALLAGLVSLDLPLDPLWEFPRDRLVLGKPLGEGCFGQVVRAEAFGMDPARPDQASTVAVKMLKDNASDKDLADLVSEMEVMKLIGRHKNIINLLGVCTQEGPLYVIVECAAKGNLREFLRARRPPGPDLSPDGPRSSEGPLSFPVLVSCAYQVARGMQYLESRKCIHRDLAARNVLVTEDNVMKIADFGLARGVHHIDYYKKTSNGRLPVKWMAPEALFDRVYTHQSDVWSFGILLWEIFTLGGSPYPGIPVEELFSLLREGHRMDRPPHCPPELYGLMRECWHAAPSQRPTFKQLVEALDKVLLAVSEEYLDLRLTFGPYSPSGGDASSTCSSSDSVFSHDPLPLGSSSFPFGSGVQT
T3 sequence (Q00535 whole entry): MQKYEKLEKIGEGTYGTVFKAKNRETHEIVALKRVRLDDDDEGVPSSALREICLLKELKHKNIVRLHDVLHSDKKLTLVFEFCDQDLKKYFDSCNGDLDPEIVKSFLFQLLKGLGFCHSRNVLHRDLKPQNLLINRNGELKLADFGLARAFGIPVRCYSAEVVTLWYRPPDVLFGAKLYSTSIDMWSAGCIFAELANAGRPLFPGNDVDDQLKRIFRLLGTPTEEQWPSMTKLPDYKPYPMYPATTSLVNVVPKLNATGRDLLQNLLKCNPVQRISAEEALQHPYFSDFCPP
T3 sequence (Q15078 whole entry partner): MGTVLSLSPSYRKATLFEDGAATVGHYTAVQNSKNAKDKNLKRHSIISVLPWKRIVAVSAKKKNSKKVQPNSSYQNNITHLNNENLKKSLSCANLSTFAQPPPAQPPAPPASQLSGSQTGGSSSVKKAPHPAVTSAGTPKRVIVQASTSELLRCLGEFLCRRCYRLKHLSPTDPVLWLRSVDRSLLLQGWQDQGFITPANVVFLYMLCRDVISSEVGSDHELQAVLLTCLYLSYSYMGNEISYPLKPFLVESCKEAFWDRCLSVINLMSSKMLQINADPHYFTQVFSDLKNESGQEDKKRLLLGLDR

`CONC(=O)c1ccccc1Nc1cc(Nc2cc(C)nn2C(C)C)ncc1Cl` [GSK2256098]: the remaining activity at 1 µM was found to be 108% on Flt3(h); 94% on CDK2/cyclinA(h); 94% at CDK5/p35(h); 105% at IR(h); 90% at PKD2(h); 43% at Aurora-A(h). The remaining activity at 1 µM at FGFR4(h) was determined as 104%.
In the case of `CNC(=O)c1cccc(C)c1Nc1nc(Nc2ccc(N3CCN(C4C5CC6CC4CC(O)(C6)C5)CC3)cc2OC)ncc1C(F)(F)F` (stereo not drawn) [SJP1602, 2-((2-((4-(4-((2s,5r)-5-hydroxyadamantan-2-yl)piperazin-1-yl)-2-methoxyphenyl)amino)-5-(trifluoromethyl)pyrimidin-4-yl)amino)-N,3-dimethylbenzamide], the remaining activity at 1 µM at Flt3(h) amounted to 77%; on CDK2/cyclinA(h), 85%; on CDK5/p35(h) it was 84%; at IR(h), 103%; on PKD2(h), 116%; on Aurora-A(h), 48%. In addition, on FGFR4(h), the remaining activity at 1 µM amounted to 102%.
`CNC(=O)c1ccc(Nc2ncc(C(F)(F)F)c(NCc3nccnc3N(C)S(C)(=O)=O)n2)cc1` [VS-6063, Defactinib]: the remaining activity at 1 µM at Flt3(h) is 6%; on CDK2/cyclinA(h), 28%; at CDK5/p35(h), 10%; on IR(h) it was 62%; on PKD2(h) it was 116%; at Aurora-A(h), 12%. Also, on FGFR4(h), the remaining activity at 1 µM came to 104%.
